Legend:
c-Raf-1 = c-Raf-1 (Homo sapiens, UniProt P04049); assay: In vitro kinase assay, c-Raf-1; assay type: biochemical; settings: in vitro kinase assays (data not shown)
From the text: (§1) No anti-proliferative activity has previously been described for TPT. Tetrazole compounds such as TPT are commonly used as histological reagents that are reduced by cellular dehydrogenases in viable cells to a coloured formazan dye (Adegboyega et al., Arch. Pathol. Lab. Med., 121:1063-68, 1997, Otero et al., Cytotechnology, 6:137-42, 1991). However, no obvious staining of cells was observed using TPT at the concentrations used in the present assays. […] A previously identified inhibitor of p38 mitogen activated kinase (SB203580) (Cuenda et al., FEBS Lett., 364:229-33, 1995, Liverton et al., J. Med. Chem., 42:2180-90, 1999) was also noted to be structurally similar to TPT (FIG. 6). […] It is therefore unclear whether kinases represent cellular targets for TPT.

c-Jun kinases = assay: In vitro kinase assay, c-Jun kinases; assay type: biochemical; settings: in vitro kinase assays (data not shown)
From the text: as §1

p38 = p38 (Homo sapiens, UniProt Q16539); assay: In vitro kinase assay, p38; assay type: biochemical; settings: in vitro kinase assays (data not shown)
p38, sequence (Q16539 whole entry): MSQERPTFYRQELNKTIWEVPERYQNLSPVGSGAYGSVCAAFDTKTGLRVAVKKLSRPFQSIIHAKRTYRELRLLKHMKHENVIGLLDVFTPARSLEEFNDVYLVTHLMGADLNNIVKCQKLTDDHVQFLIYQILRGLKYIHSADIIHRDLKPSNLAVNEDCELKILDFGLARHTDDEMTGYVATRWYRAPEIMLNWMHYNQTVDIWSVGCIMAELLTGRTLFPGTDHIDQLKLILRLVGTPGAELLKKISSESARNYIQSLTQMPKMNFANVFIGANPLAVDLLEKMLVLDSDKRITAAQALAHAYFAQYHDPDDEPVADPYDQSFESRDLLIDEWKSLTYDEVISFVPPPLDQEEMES
From the text: as §1

[1] = system: DLD-1 cells (mutant c-Ki-Ras); assay: Co-culture fluorescence growth inhibition screen, DLD-1 cells (BFP); assay type: cell-based, human
From the text: (§2) FIG. 1. Schematic of drug screening format using co-cultured isogenic cells modified with spectrally distinct green fluorescent protein (GFP) variants. DLD-1 cells, harbouring a mutant c-Ki-RAS allele plus a wild-type (wt) c-Ki-RAS allele, were modified to stably express a GFP variant that is excited at 530 nm (YFP). An isogenic clone (KO) in which only the mutant c-Ki-RAS allele has been deleted (Adegboyega et al., Arch. Pathol. Lab. Med., 121:1063-68, 1997) was modified to express a GFP variant that is excited at 390 nm (BFP). These cells were mixed and plated at low density in 96-well plates. […] Plates were assayed every day for six days using a fluorescence plate reader to obtain growth curves for each cell line in every well of the plate.
(§3) FIG. 5. […] Growth curves were obtained from fluorescence at 390ex/508em (DLD-1) and 530ex/590em (KO). […]
(§4) Fluorescent cell lines were harvested by trypsinization and resuspended together as a mixture containing 22,000 cells/ml (DLD-1) and 18,000 cells/ml (KO) in DMEM media supplemented with 10% FCS (HyClone, Logan, Utah). […] Each well of column 1 contained […] of the growth medium without cells as a control for computing background fluorescence. […] Fluorometry data from each day's read were exported to a custom program (Drugmobile) for plotting the growth curves of each cell line in each well of the 96-well plate. […]

[2] = system: KO cells (DKS-8, mutant c-Ki-Ras allele deleted); assay: Co-culture fluorescence growth inhibition screen, KO cells (YFP); assay type: cell-based, human; settings: concentration and time course experiments, co-cultured cells (FIG. 5)
From the text: as §2, §3, §4

[3] = system: downstream components of the RAS pathway; settings: previously shown (Cardenas 1998; Campbell 1994); cited from earlier work
mutant-RAS cell line = assay: Growth inhibition assay with parental non-GFP cell lines plated separately, PicoGreen (FIG. 6); assay type: cell-based, human; settings: range of concentrations, five days
Procedure: FIG. 6. Structure/activity ratios (SAR's) of compounds with structural homology to TPT. Growth inhibition assays were performed using parental (non-GFP modified) cell lines. Cells were plated separately at low density in 96 well plates and exposed to a range of test drug concentrations for five days. Cells were then lysed in H2O, and lysates assayed for relative cell number using the dsDNA-binding dye (PicoGreen).
Secondary screens on primary screen hits were performed as above except that a drug concentration range was used, typically extending from 30 ng/ml to 4 μg/ml. […] Assays using non-GFP modified cell lines were performed using cells plated separately rather than co-cultured. Plates were harvested each day for assessment of cell number using either an MTT assay or using the DNA-binding dye PicoGreen (Molecular Probes, Eugene, Oreg.). MTT assays were performed according to the manufacturers instructions (Trevigen, Gaithersburg, Md.). PicoGreen assays were performed by lysing cells in 96-well plates in 200 μl H2O, triturating and then transferring a 10 μl aliquot from each well to […] of PigoGreen solution (# P-7581) diluted to 0.5% vol/vol in Tris-EDTA (TE) buffer.

c-Raf-1, sequence (P04049 whole entry): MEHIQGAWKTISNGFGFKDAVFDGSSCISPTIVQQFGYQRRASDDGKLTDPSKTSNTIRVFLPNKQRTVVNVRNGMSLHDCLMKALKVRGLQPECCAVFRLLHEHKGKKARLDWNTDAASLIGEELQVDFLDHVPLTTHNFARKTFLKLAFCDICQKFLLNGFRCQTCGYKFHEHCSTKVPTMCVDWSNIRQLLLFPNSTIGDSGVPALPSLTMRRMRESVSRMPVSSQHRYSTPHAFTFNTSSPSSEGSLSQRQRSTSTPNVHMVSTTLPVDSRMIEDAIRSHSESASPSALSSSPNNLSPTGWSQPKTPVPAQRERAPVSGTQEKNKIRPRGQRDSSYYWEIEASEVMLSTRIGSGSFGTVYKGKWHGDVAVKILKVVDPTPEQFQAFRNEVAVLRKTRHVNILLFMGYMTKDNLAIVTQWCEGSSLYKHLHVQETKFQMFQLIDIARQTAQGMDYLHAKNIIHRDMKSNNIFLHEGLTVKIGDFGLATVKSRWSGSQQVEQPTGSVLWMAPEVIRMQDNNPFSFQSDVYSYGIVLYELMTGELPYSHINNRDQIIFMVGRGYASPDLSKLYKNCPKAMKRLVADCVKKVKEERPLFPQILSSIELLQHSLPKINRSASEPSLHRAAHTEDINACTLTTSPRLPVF

For `c1ccc(-c2nn(-c3ccccc3)[n+](-c3ccccc3)n2)cc1` [TPT, Triphenyltetrazolium], the “inhibition of c-Raf-1” value (c-Raf-1) was “little or no reproducible inhibition”, the “inhibition of c-Jun kinases” value (c-Jun kinases) was “little or no reproducible inhibition” and the “inhibition of p38” value (p38) was “little or no reproducible inhibition”. For the same compound, the “selectivity for inhibiting the growth of the mutant c-Ki-RAS cell line (DLD-1)” value ([1]; DLD-1 versus KO) was roughly 6 fold, the “IC50 on DLD-1” value ([1]; concentration and time course experiments, co-cultured cells (FIG. 5)) was roughly 2 µg/mL and the “IC50 on KO” value [2] was roughly 12 µg/mL.
In the case of `C[C@@]12c3ccc4c(c3C(=O)c3occ(c31)C(=O)C[C@H]2O)CCC4=O` [demethoxyviridin], the “inhibition of downstream components of the RAS pathway” value [3] is listed as “inhibit downstream components of the RAS pathway”.
For `C[S+]([O-])c1ccc(-c2nc(-c3ccncc3)c(-c3ccc(F)cc3)[nH]2)cc1` (centres unmarked) [SB203580], the “selectivity towards the mutant RAS-containing line” value (mutant-RAS cell line) was “failed to show selectivity”.
